How the values were obtained:
Details in all cases: 72 h
Calu-3 [1] = assay: relative viability EC50 (midpoint between 100% and the lowest measured viability); higher = less toxic
U2OS [2] = assay: as above
HepG2 [3] = assay: as above
Caco-2 [4] = assay: as above
Calu-3 [5] = assay: drug sensitivity score (DSS) for viability; higher = more toxic; extreme values may be limits of the assay
U2OS [6] = assay: as above
HepG2 [7] = assay: as above
Caco-2 [8] = assay: as above
Calu-3 [9] = assay: cell viability relative to DMSO; higher = less toxic
U2OS [10] = assay: as above
HepG2 [11] = assay: as above
Caco-2 [12] = assay: as above
Vero E6 [13] = assay: relative viability EC50 (midpoint between 100% and the lowest measured viability); higher = less toxic
Vero E6 [14] = assay: drug sensitivity score (DSS) for viability; higher = more toxic; extreme values may be limits of the assay
Vero E6 [15] = assay: cell viability relative to DMSO; higher = less toxic

| SMILES | relative viability EC50 (Calu-3 [1]) [µM] | relative viability EC50 (U2OS [2]) [µM] | relative viability EC50 (HepG2 [3]) [µM] | relative viability EC50 (Caco-2 [4]) [µM] | drug sensitivity score (Calu-3 [5]) | drug sensitivity score (U2OS [6]) | drug sensitivity score (HepG2 [7]) | drug sensitivity score (Caco-2 [8]) | cell viability (Calu-3 [9]; 1 nM) [%] | cell viability (Calu-3 [9]; 10 nM) [%] | cell viability (Calu-3 [9]; 100 nM) [%] | cell viability (Calu-3 [9]; 1000 nM) [%] | cell viability (Calu-3 [9]; 10000 nM) [%] | cell viability (U2OS [10]; 1 nM) [%] | cell viability (U2OS [10]; 10 nM) [%] | cell viability (U2OS [10]; 100 nM) [%] | cell viability (U2OS [10]; 1000 nM) [%] | cell viability (U2OS [10]; 10000 nM) [%] | cell viability (HepG2 [11]; 1 nM) [%] | cell viability (HepG2 [11]; 10 nM) [%] | cell viability (HepG2 [11]; 100 nM) [%] | cell viability (HepG2 [11]; 1000 nM) [%] | cell viability (HepG2 [11]; 10000 nM) [%] | cell viability (Caco-2 [12]; 1 nM) [%] | cell viability (Caco-2 [12]; 10 nM) [%] | cell viability (Caco-2 [12]; 100 nM) [%] | cell viability (Caco-2 [12]; 1000 nM) [%] | cell viability (Caco-2 [12]; 10000 nM) [%] | relative viability EC50 (Vero E6 [13]) [µM] | drug sensitivity score (Vero E6 [14]) | cell viability (Vero E6 [15]; 1 nM) [%] | cell viability (Vero E6 [15]; 10 nM) [%] | cell viability (Vero E6 [15]; 100 nM) [%] | cell viability (Vero E6 [15]; 1000 nM) [%] | cell viability (Vero E6 [15]; 10000 nM) [%] |
| --- | --- | --- | --- | --- | --- | --- | --- | --- | --- | --- | --- | --- | --- | --- | --- | --- | --- | --- | --- | --- | --- | --- | --- | --- | --- | --- | --- | --- | --- | --- | --- | --- | --- | --- | --- |
| CC(=O)Nc1ccc(C(=O)O)cc1 [acedoben] | > 10 | > 10 | > 10 | > 10 | 0 | 0 | 0 | 0 | 101 | 99.4 | 96.7 | 100 | 108 | 97.4 | 104 | 97.3 | 98 | 102 | 114 | 110 | 107 | 96.8 | 104 | 88.6 | 100 | 95.6 | 86.4 | 109 | – | – | – | – | – | – | – |
| C[C@@H]1CC[C@@]2(OC1)O[C@H]1C[C@H]3[C@@H]4CC=C5C[C@@H](O[C@@H]6O[C@H](CO)[C@@H](O[C@@H]7O[C@@H](C)[C@H](O)[C@@H](O)[C@H]7O)[C@H](O)[C@H]6O[C@@H]6O[C@@H](C)[C@H](O)[C@@H](O)[C@H]6O)CC[C@]5(C)[C@H]4CC[C@]3(C)[C@H]1[C@@H]2C [dioscin] | 1.68 | – | 1.59 | 1.56 | 8.7 | – | 9.2 | 9.1 | 96.7 | 89.7 | 97.9 | 79.3 | 2.9 | – | – | – | – | – | 96.8 | 97.5 | 90.1 | 76.2 | -0.2 | 97.9 | 92.6 | 95.2 | 75.9 | 2.3 | 1.42 | 9.7 | 97 | 103 | 98.4 | 71.1 | 0.9 |
| CCn1cc(C(=O)O)c(=O)c2cnc(N3CCCC3)nc21 [piromidic-acid] | > 10 | > 10 | > 10 | > 10 | 0 | 0 | 0 | 0 | 101 | 74.8 | 95.1 | 87 | 98.6 | 99.8 | 98 | 100 | 99.1 | 102 | 93 | 104 | 96.9 | 103 | 99.3 | 103 | 90.3 | 97.6 | 97.1 | 93.7 | – | – | – | – | – | – | – |
| O=C(/C=C/c1ccc2ccccc2n1)c1ccncc1 [PFK-015] | – | 2.69 | 1.99 | 2.09 | 2.5 | 6.4 | 8 | 5.5 | 107 | 105 | 88 | 97 | 59.2 | 93 | 94.8 | 95.4 | 94 | 0 | 106 | 89.6 | 110 | 85 | 0.1 | 93.3 | 96.3 | 95.8 | 90.6 | 29.7 | 2.68 | 6.2 | 101 | 94.9 | 98 | 94.1 | 4.2 |
